Consider 33 molecules from patent US20200337311A1 (priority 2017, published 2020).

The test system of data set [1] is Meloidogyne incognita. In words: Meloidogyne incognita in vivo test on cucumber plants (gall rating). Conditions: 300 ppm; soil application to cucumber seedlings; 15 days after application; untreated check up to 8. As to the method: (§1) Meloidogyne incognita: In Vivo Test
Cucumber plants were grown in seedling tray containing mixture of Sand:Soil:FYM:Cocopeat in ratio of 1:1:1:1. One mL of test compound at tested concentration was applied into the soil mixture with the help of micropipette when the cucumber seedlings ten days old. Approximately 2000 freshly hatched second-stage juveniles of Meloidogyne incognita were inoculated. The treated plants were allowed to grow at 27° C. temperature in greenhouse. Observation of gall rating was recorded after 15 days of application. Plants were carefully uprooted and roots were washed thoroughly. The gall rating was observed on 0-10 scale as described by Zeck (1971) as mentioned below: • 0=no galls • 1=very few small galls • 2=numerous small galls • 3=numerous small galls of which some are grown together • 4=numerous small and some big galls • 5=25% of roots severely galled • 6=50% of roots severely galled • 7=75% of roots severely galled • 8=no healthy roots but plant is still green • 9=roots rotting and plant dying • 10=plant and roots dead
recorded less than 3 gall rating in the tests, where there was extensive galling (up to 8) in untreated check.

Data set [2] relates to Meloidogyne incognita. Kind of data set: Meloidogyne incognita (root-knot nematode) in vitro test. Conditions: 300 ppm; 50 juveniles in 500 μL water, 25° C.; counted at 48, 72 and 96 h; no mortality in untreated check. As to the method:
Example 1: Meloidogyne incognita (Root-Knot Nematode): In Vitro Test
The test compounds at a concentration of 300 ppm were introduced into 500 μL of distilled water containing 50 Meloidogyne incognita juveniles into 24-well plates. The suspension was lightly shaken for uniform mixing of compounds. The test plates were covered with lids, and were kept for incubation at 25° C. temperature and 90% relative humidity. […] Compounds
as §1

Regarding `N#Cc1cnc(SCCC(F)=C(F)F)o1` [Compound 331], in the data set on Meloidogyne incognita [1], the “gall rating (0-10 scale, Zeck 1971)” value was < 3.

Turning to `CC(C)CCO/N=C/c1cnc(SCCC(F)=C(F)F)s1` [Compound 34], the “gall rating (0-10 scale, Zeck 1971)” value with Meloidogyne incognita [1] is recorded as < 3.

As to `Cc1nc(S(=O)(=O)CCC(F)=C(F)F)oc1C(F)F` [Compound 350], the “gall rating (0-10 scale, Zeck 1971)” value with Meloidogyne incognita [1] was < 3.

`Cc1nc([S+]([O-])CCC(F)=C(F)F)sc1C#N` (stereo not drawn) [Compound 338]: the “gall rating (0-10 scale, Zeck 1971)” value in the data set with Meloidogyne incognita [1] is reported as < 3.

For `CCO/N=C(\C)c1cnc(SCCC(F)=C(F)F)o1` [Compound 132], in the data set with Meloidogyne incognita [1], the “gall rating (0-10 scale, Zeck 1971)” value was < 3.

For `CO/N=C/c1cnc(SCCC=C(F)F)s1` [Compound 234], in the data set on Meloidogyne incognita [1], the “gall rating (0-10 scale, Zeck 1971)” value is < 3.

As to `CCO/N=C\c1cnc(S(=O)(=O)CCC=C(F)F)s1` [Compound 233], the “gall rating (0-10 scale, Zeck 1971)” value in the data set on Meloidogyne incognita [1] is listed as < 3.

For the molecule `CO/N=C(\C)c1cnc(S(=O)(=O)CCC(F)=C(F)F)s1` [Compound 53], the “gall rating (0-10 scale, Zeck 1971)” value in the data set with Meloidogyne incognita [1] is < 3.

On to `[O-][S+](CCC(F)=C(F)F)c1ncc(/C=N\OCC2CC2)o1` (stereo not drawn) [Compound 103], for which the “gall rating (0-10 scale, Zeck 1971)” value in the data set with Meloidogyne incognita [1] is reported as < 3.

Consider `CO/N=C/c1cnc(SCCC=C(F)F)o1` [Compound 290], for which, in the data set with Meloidogyne incognita [2], the mortality – broadly, the share of the test organisms that died – is listed as > 90%.

With `N#Cc1cnc([S+]([O-])CCC(F)=C(F)F)s1` (stereo not drawn) [Compound 328], the “gall rating (0-10 scale, Zeck 1971)” value in the data set on Meloidogyne incognita [1] is given as < 3.

For `Cc1nc([S+]([O-])CCC(F)=C(F)F)oc1C#N` (stereo not drawn) [Compound 348], in the data set on Meloidogyne incognita [1], the “gall rating (0-10 scale, Zeck 1971)” value is reported as < 3.

`CO/N=C(\C)c1cnc([S+]([O-])CCC(F)=C(F)F)o1` (stereo not drawn) [Compound 130]: the “gall rating (0-10 scale, Zeck 1971)” value in the data set with Meloidogyne incognita [1] is recorded as < 3.

Consider `CCO/N=C/c1cnc(S(=O)(=O)CCC=C(F)F)s1` [Compound 237], for which the “gall rating (0-10 scale, Zeck 1971)” value in the data set with Meloidogyne incognita [1] is given as < 3.

As to `N#Cc1cnc(S(=O)(=O)CCC(F)=C(F)F)s1` [Compound 332], the “gall rating (0-10 scale, Zeck 1971)” value in the data set on Meloidogyne incognita [1] is recorded as < 3.

With `CO/N=C/c1oc(SCCC(F)=C(F)F)nc1C` [Compound 238], in the data set on Meloidogyne incognita [1], the “gall rating (0-10 scale, Zeck 1971)” value is listed as < 3.

With `CCO/N=C\c1cnc(SCCC(F)=C(F)F)o1` [Compound 13], the “gall rating (0-10 scale, Zeck 1971)” value with Meloidogyne incognita [1] is given as < 3.

With `[O-][S+](CCC(F)=C(F)F)c1ncc(C(F)F)s1` (stereo not drawn) [Compound 326], the “gall rating (0-10 scale, Zeck 1971)” value in the data set on Meloidogyne incognita [1] is given as < 3.

With `CCO/N=C/c1cnc(S(=O)(=O)CCC(F)=C(F)F)s1` [Compound 23], the “gall rating (0-10 scale, Zeck 1971)” value in the data set with Meloidogyne incognita [1] was < 3.

As for `CO/N=C\c1cnc(S(=O)(=O)CCC=C(F)F)s1` [Compound 236], the “gall rating (0-10 scale, Zeck 1971)” value in the data set on Meloidogyne incognita [1] is given as < 3.

Regarding `Cc1csc(S(=O)(CCC(F)=C(F)F)=NC#N)n1` (stereo not drawn) [Compound 183], in the data set on Meloidogyne incognita [1], the “gall rating (0-10 scale, Zeck 1971)” value is given as < 3.

`Cc1nc(S(=O)(=O)CCC(F)=C(F)F)sc1C#N` [Compound 339]: the “gall rating (0-10 scale, Zeck 1971)” value in the data set on Meloidogyne incognita [1] is listed as < 3.

As to `CO/N=C\c1cnc(SCCC=C(F)F)s1` [Compound 235], the “gall rating (0-10 scale, Zeck 1971)” value in the data set with Meloidogyne incognita [1] is < 3.

With `CO/N=C(/c1oc([S+]([O-])CCC(F)=C(F)F)nc1C)C(C)C` (stereo not drawn) [Compound 273], the “gall rating (0-10 scale, Zeck 1971)” value in the data set with Meloidogyne incognita [1] is given as < 3.

For `Cc1nc([S+]([O-])CCC(F)=C(F)F)sc1C(F)F` (stereo not drawn) [Compound 337], the “gall rating (0-10 scale, Zeck 1971)” value in the data set on Meloidogyne incognita [1] was < 3.

`N#Cc1cnc(SCCC(F)=C(F)F)s1` [Compound 327]: the “gall rating (0-10 scale, Zeck 1971)” value in the data set with Meloidogyne incognita [1] was < 3.

Consider `[O-][S+](CCC(F)=C(F)F)c1ncc(-c2ncon2)s1` (stereo not drawn) [Compound 213], for which the “gall rating (0-10 scale, Zeck 1971)” value with Meloidogyne incognita [1] is < 3.

Turning to `CO/N=C(/C)c1cnc(S(=O)(=O)CCC(F)=C(F)F)o1` [Compound 134], the “gall rating (0-10 scale, Zeck 1971)” value with Meloidogyne incognita [1] was < 3.

In the case of `Cc1nc(S(=O)(=O)CCC(F)=C(F)F)sc1C(F)F` [Compound 340], the “gall rating (0-10 scale, Zeck 1971)” value in the data set with Meloidogyne incognita [1] was < 3.

For `N#Cc1cnc([S+]([O-])CCC(F)=C(F)F)o1` (stereo not drawn) [Compound 333], in the data set on Meloidogyne incognita [1], the “gall rating (0-10 scale, Zeck 1971)” value is recorded as < 3.

Regarding `FC(F)=C(F)CCSc1ncc(C(F)F)o1` [Compound 330], the “gall rating (0-10 scale, Zeck 1971)” value with Meloidogyne incognita [1] is < 3.

In the case of `O=S(=O)(CCC(F)=C(F)F)c1ncc(C(F)F)s1` [Compound 329], the “gall rating (0-10 scale, Zeck 1971)” value with Meloidogyne incognita [1] is recorded as < 3.

Turning to `CCO/N=C/c1cnc([S+]([O-])CCC(F)=C(F)F)o1` (stereo not drawn) [Compound 36], the “gall rating (0-10 scale, Zeck 1971)” value in the data set with Meloidogyne incognita [1] is listed as < 3.
